Results taken from patent publication US7345042B2, “MCH antagonists for the treatment of obesity” (Schering Corporation, priority 2003, dated 2008).

molecular target: T1, MCH receptor (Homo sapiens, UniProt Q99705); experiment: MCH Receptor Binding Assay ([125I]-MCH SPA, membranes from CHO cells expressing the MCH receptor); settings: CHO cell membranes, [125I]-MCH, read-out: MCH Receptor Activity (Ki rating)
T1 construct: expressed in transfected cells; host or cells: CHO cells
Method: MCH Receptor Binding Assay:
Membranes from CHO cells expressing the MCH receptor were prepared by lysing cells with 5 mM HEPES for 15 min at 4 C. Cell lysates were centrifuged ([…], 15 min) and the pellet was resuspended in 5 mM HEPES. For each 96-well plate (Microlite, Dynex Technologies), 1 mg of cell membranes were incubated with 10 mg of wheat germ agglutinin SPA beads (Amersham) for 5 min at 4 C in a volume of 10 ml of binding buffer (25 mM HEPES, 10 mM MGCl2, 10 mM NaCl, 5 mM MnCl2, 0.1% BSA). The membrane/bead mixture was centrifuged (1500×g, 3.5 min), the supernatant was aspirated, and the pellet was resuspended in 10 ml binding buffer. The centrifugation, aspiration and resuspension were then repeated. The membrane/bead mixture (100 μl) was then added to 96-well plates containing 50 μl of 500 pM [^125I]-MCH (NEN) and […] of the appropriate concentration of compound (4× the desired final concentration). Nonspecific binding was determined by including 1 μM MCH in the binding reaction. The binding reaction was incubated at room temperature for 2 h. Plates were then analyzed in a TOPCOUNT microplate scintillation counter (Packard). Data was analyzed and Ki values were determined using GraphPad Prim.

T1 sequence (Q99705 whole entry): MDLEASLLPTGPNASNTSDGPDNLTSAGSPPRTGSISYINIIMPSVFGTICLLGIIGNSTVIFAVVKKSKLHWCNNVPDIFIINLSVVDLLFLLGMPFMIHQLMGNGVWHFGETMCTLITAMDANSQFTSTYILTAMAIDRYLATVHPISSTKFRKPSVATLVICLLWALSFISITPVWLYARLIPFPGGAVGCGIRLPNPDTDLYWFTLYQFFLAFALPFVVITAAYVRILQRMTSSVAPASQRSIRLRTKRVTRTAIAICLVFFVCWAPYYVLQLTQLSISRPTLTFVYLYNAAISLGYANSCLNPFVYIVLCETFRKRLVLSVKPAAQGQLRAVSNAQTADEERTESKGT

Ki [nM]	SMILES
6 to 10	CCCOc1cscc1C(=O)N1CCC(N2CCN([C@@H](C)c3ccc(-c4cc(Cl)cc(Cl)c4)cc3)[C@H](C)C2)CC1 [Example 19]
10 to 15	CCCOc1ccsc1C(=O)N1CCC(N2CCN([C@@H](C)c3ccc(CCc4ccc(Cl)cc4)cc3)[C@H](C)C2)CC1 [Example 4]
10 to 15	CCOc1ccsc1C(=O)N1CCC(N2C[C@@H](C)N([C@@H](C)c3ccc(-c4cc(Cl)cc(Cl)c4)cc3)[C@H](C)C2)CC1 [Example 18]
6 to 10	C[C@@H]1CN(C2(C)CCN(C(=O)c3sccc3OCC3CC3)CC2)CCN1[C@@H](C)c1ccc(-c2ccncc2)cc1 [Example 15]
6 to 10	CCCOc1ccsc1C(=O)N1CCC(N2CCN([C@@H](C)c3ccc(CCc4ccc(C(F)(F)F)cc4)cc3)[C@H](C)C2)CC1 [Example 14]
6 to 10	CCOc1ccsc1C(=O)N1CCC(N2CCN([C@@H](C)c3ccc(-c4cc(Cl)cc(Cl)c4)cc3)[C@H](C)C2)CC1C (stereo partly drawn) [Example 16]
> 15	CCOc1ccsc1C(=O)N1CCC(N2CCN([C@@H](C)c3ccc(-c4cc(Cl)cc(Cl)c4)cc3)[C@H](C)C2)CC1C (stereo partly drawn) [Example 17]
6 to 10	CCOc1ccsc1C(=O)N1CCC(N2CCN([C@@H](C)c3ccc(CCc4ccc(C(F)(F)F)cc4)cc3)[C@H](C)C2)CC1 [Example 13]
6 to 10	CCCOc1ccsc1C(=O)N1CCC(C)(N2CCN([C@@H](C)c3ccc(-c4cc(Cl)cc(Cl)c4)cc3)[C@H](C)C2)CC1 [Example 3]
10 to 15	CCOc1ccsc1C(=O)N1CCC(N2CCN([C@@H](C)c3ccc(-c4cc(Cl)cc(Cl)c4)cc3)[C@H](C)C2)CC1 [Example 2]
10 to 15	CCCOc1ccsc1C(=O)N1CCC(N2CCN([C@@H](C)c3ccc(CCc4ccc5c(c4)OCO5)cc3)[C@H](C)C2)CC1 [Example 1]
> 15	CCOc1ccsc1C(=O)N1CCC(N2CCN([C@@H](C)c3ccc(-c4ccc(Cl)s4)cc3)[C@H](C)C2)CC1 [Example 10]
10 to 15	CCCOc1ccsc1C(=O)N1CCC(N2CCN([C@@H](C)c3ccc(-c4ccc(F)c(Cl)c4)cc3)[C@H](C)C2)CC1 [Example 9]
6 to 10	CCCOc1ccsc1C(=O)N1CCC(N2CCN([C@@H](C)c3ccc(-c4cc(Cl)cc(Cl)c4)cc3)[C@H](C)C2)CC1 [Example 6]
6 to 10	C[C@@H]1CN(C2CCN(C(=O)c3sccc3OCC3CC3)CC2)CCN1[C@@H](C)c1ccc(-c2cc(Cl)cc(Cl)c2)cc1 [Example 12]
> 15	C[C@@H]1CN(C2CCN(C(=O)c3sccc3OCC3CC3)CC2)C[C@@H](C)N1Cc1ccc(-c2cc(Cl)cc(Cl)c2)cc1 [Example 11]
6 to 10	CCCCOc1ccsc1C(=O)N1CCC(N2CCN([C@@H](C)c3ccc(-c4cc(Cl)cc(Cl)c4)cc3)[C@H](C)C2)CC1 [Example 8]
6 to 10	C[C@@H]1CN(C2(C)CCN(C(=O)c3sccc3OCC3CC3)CC2)CCN1[C@@H](C)c1ccc(-c2cc(Cl)cc(Cl)c2)cc1 [Example 5]
10 to 15	CCCCOc1ccsc1C(=O)N1CCC(N2CCN([C@@H](C)c3ccc(-c4cc(Cl)cc(Cl)c4)cc3)[C@H](C)C2)CC1 [Example 7]

same assay, conditions: unit inferred, read-out: Ki values

Ki [nM]	SMILES
6	CCCOc1cscc1C(=O)N1CCC(N2CCN([C@@H](C)c3ccc(-c4cc(Cl)cc(Cl)c4)cc3)[C@H](C)C2)CC1 [Example 20]
6	CCOc1ccsc1C(=O)N1CCC(N2CCN([C@@H](C)c3ccc(-c4cc(Cl)cc(Cl)c4)cc3)[C@H](C)C2)CC1C (stereo partly drawn) [Example 16]
